Results: patent publication US20040259926A1, “3-Aryloxy and 3-heteroaryloxy substituted benzo[b]thiophenes as therapeutic agents” (priority 2003, published 2004)

Molecular target: T1, PI3Kγ (recombinant p101/p110γ protein) (Homo sapiens, UniProt P48736)
T1 construct: HA; made in house; host or cells: Spodoptera frugiperda (Sf9) cells, baculovirus co-infection
Assay: PI3Kγ In Vitro Kinase Assay
Assay type: biochemical
Details: purified recombinant p101/p110γ with G protein β1/γ2 subunits; 20 μM ATP, [γ-32P-ATP]; 25 μM PIP2 lipid micelles; 20 minutes at room temperature
Description: Spodtera frugiperda cells, grown in ESF921 media, were coinfected with baculovirus expressing a glu-tagged […] and baculovirus expressing an HA-tagged p110γ, at a 3:1 ratio of p101 baculovirus to p110γ baculovirus. Sf9 cells were grown to 1×10^7 total cells/mL in 10 L bioreactors and harvested 48-72 hours post infection. Samples of infected cells were then tested for expression of p101/p110γ PI3 kinase by immunoprecipitation and Western Blot analysis methods (see below).
To purify PI3Kγ, 4 volumes of room temperature hypotonic lysis buffer (1 mM MgCl2, 1 mM DTT, 5 mM EGTA, 1 mM Pefabloc, 0.5 μM aprotinin, 5 μM leupeptin, 2 μM pepstatin, 5 μM E64, pH 8) per gram of cell paste, was poured onto frozen cell pellets with stirring, then lysed in a nitrogen “bomb” at 400 psi (599 HC T316, Parr Instrument Co, Moline, Ill.). NaCl was added to 150 mM, and sodium cholate was added to 1% and mixed for another 45 minutes. The lysates were clarified by centrifugation for 25 minutes at 14,000 rpm. The lysates were then loaded over anti-glu-linked Protein-G Sepaharose beads (Covance Research Products, Richmond, Calif.) using 20 mL resin/50 g cell paste. The column was washed with 15 volumes of wash buffer (1 mM DTT, 0.2 mM EGTA, 1 mM Pefabloc, 0.5 μM aprotinin, 5 μM leupeptin, 2 μM pepstatin, 5 μM E64, 150 mM NaCl, 1% sodium cholate, pH 8). PI3Kγ was eluted with 6 column volumes of wash buffer that contain 100 μg/mL of a peptide that competes for binding of the glu tag. The column fractions with the eluted protein (determined by taking OD280 readings) were collected and dialyzed in 0.2 mM EGTA, 1 mM DTT, 1 mM Pefabloc, 5 μM leupeptin, 0.5% sodium cholate, 150 mM NaCl, and 50% glycerol, pH 8. The fractions were stored at −80° C. until further use.
Spodtera frugiperda cells were coinfected with baculovirus expressing a glu-tagged G protein β1 and baculovirus expressing a G protein β2 at a 1:1 ratio of glu-tagged G protein β1 baculovirus to G protein β2 baculovirus. Sf9 cells are grown in 10 L bioreactors and harvested 48-72 hours post infection. Samples of infected cells were tested for G protein β1/β2 expression by Western Blot analysis, as described below. Cell lysates were homogenized and loaded onto a column of glu-tagged beads as in Biological Example 1 and competed off the column with a glu peptide and processed as described in Biological Example 1.
The inhibitory properties of the compounds in Table 1 were assayed in an in vitro PI3K assay. In a 96-well polypropylene plate, each well was spotted with 2 μL of 50 times the desired final concentration of compound in DMSO. Purified recombinant p101/p110γ protein (0.03 μg; ˜2.7 nM) and G protein β1/γ2 subunits (0.09 μg; ˜57.7 nM) for each reaction was combined in the assay buffer (30 mM HEPES, 100 mM NaCl, 1 mM EGTA, and 1 mM DTT). ATP and [γ-^32P-ATP] (0.09 μCi) were added to this mixture so that the final ATP concentration in the reaction was 20 μM. Lipid micelles were formed by sonicating phosphatidylinositol-4,5-diphosphate (PIP2), phosphatidylethanolamine (PE), and Na-cholate in the assay buffer for 10 minutes, adding MgCl2 and incubating on ice for 20 minutes, for final concentrations of 25 μM PIP2, 300 μM PE, 0.02% Na-cholate, and 10 mM MgCl2 in the reaction. The reactions were started by adding equal volumes lipid and enzyme mixture in a total volume of 50 μL, allowed to run for 20 minutes at room temperature, and stopped with 100 μL 75 mM H3PO4. The lipid product was transferred to a glass fiber filter plate and washed with 75 mM H3PO4 several times. The presence of radioactive lipid product (PIP3) was measured by adding Wallac Optiphase mix to each well and counting in a Wallac 1450 Trilux plate reader (PerkinElmer Life Sciences Inc., Boston, Mass. 02118). The IC50 for each compound tested is reported in μM in Table 1: […]

T1 sequence (P48736 whole entry, species assumed): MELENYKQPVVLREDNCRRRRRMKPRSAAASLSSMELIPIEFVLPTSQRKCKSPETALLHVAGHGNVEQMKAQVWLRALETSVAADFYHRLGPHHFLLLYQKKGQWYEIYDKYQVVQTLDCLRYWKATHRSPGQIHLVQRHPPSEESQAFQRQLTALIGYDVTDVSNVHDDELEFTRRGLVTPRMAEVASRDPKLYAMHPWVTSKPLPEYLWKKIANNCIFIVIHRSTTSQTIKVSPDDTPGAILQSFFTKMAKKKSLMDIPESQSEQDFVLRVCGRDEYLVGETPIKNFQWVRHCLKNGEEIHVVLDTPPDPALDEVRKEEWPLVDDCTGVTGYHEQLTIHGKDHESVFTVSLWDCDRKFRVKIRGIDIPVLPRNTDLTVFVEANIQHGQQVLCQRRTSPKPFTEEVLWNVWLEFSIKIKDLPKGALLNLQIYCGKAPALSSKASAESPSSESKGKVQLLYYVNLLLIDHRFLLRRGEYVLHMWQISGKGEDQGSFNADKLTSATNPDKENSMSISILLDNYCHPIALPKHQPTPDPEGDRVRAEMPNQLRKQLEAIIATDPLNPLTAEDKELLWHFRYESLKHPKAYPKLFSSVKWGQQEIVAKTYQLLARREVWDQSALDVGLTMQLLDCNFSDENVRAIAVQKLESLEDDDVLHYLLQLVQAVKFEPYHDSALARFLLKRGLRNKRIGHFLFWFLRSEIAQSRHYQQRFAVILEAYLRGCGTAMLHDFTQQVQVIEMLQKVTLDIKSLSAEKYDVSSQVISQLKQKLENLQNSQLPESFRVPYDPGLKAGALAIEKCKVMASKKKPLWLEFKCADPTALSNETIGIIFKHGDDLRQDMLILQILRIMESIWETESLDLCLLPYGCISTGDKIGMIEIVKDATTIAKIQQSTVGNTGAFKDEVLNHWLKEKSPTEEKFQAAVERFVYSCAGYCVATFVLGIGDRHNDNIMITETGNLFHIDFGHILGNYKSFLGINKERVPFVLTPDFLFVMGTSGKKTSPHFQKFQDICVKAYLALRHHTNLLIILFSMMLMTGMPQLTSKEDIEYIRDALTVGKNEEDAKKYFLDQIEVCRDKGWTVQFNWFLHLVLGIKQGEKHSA
T1 sequence (Q8WYR1 whole entry partner, species assumed): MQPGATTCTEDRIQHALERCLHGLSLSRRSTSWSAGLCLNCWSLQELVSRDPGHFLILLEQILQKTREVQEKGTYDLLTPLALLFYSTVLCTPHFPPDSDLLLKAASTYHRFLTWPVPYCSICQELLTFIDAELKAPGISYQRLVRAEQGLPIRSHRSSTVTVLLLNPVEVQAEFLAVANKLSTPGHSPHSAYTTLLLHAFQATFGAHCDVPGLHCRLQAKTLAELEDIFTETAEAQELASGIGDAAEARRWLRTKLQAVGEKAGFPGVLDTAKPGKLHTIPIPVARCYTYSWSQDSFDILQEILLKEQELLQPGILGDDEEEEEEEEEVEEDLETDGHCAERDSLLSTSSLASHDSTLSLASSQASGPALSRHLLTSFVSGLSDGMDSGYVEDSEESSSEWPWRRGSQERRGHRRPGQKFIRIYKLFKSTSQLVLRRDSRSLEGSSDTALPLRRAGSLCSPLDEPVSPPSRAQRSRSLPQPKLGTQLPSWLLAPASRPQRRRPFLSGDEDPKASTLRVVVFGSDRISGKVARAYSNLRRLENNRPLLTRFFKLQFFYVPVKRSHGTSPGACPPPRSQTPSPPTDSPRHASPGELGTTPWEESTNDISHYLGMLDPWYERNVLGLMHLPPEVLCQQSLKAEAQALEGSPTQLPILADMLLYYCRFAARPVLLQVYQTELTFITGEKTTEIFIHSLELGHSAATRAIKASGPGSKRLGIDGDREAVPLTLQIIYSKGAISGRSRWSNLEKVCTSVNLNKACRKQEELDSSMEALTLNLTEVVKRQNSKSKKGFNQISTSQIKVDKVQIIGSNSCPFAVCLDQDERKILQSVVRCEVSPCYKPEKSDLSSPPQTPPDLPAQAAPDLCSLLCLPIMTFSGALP

Row | SMILES | IC50 [nM]
1 | COc1cc2c(Oc3ccc(CC(=O)N4CCCCC4)cc3)c(C(=O)Nc3nn[nH]n3)sc2cc1C [Example B.7, 5-Methoxy-6-methyl-3-[4-(2-oxo-2-piperidin-1-yl-ethyl)-phenoxy]-benzo[b]thiophene-2-carboxylic acid (2H-tetrazol-5-yl)-amide] | 28
2 | COc1cc2c(Oc3ccc(CCC(=O)N4CCCCC4)cc3)c(C(=O)Nc3nn[nH]n3)sc2cc1C [Example B.8, 5-Methoxy-6-methyl-3-[4-(3-oxo-3-piperidin-1-yl-propyl)-phenoxy]-benzo[b]thiophene-2-carboxylic acid (2H-tetrazol-5-yl)-amide] | 33
3 | COc1cc2c(Oc3cccc(C4CCCCC4)c3)c(C(=O)Nc3nn[nH]n3)sc2cc1C [Example B.9, 3-(3-Cyclohexyl-phenoxy)-5-methoxy-6-methyl-benzo[b]thiophene-2-carboxylic acid (2H-tetrazol-5-yl)-amide] | 63
4 | COc1cc2c(Oc3ccc(CCBr)cc3)c(C(=O)Nc3nn[nH]n3)sc2cc1C [Example B.10, 3-[4-(2-Bromo-ethyl)-phenoxy]-5-methoxy-6-methyl-benzo[b]thiophene-2-carboxylic acid (2H-tetrazol-5-yl)-amide] | 15
5 | COc1cc2c(Oc3ccc4c(c3)CCCC4)c(C(=O)Nc3nn[nH]n3)sc2cc1C [Example B.11, 5-Methoxy-6-methyl-3-(5,6,7,8-tetrahydro-naphthalen-2yloxy)-benzo[b]thiophene-2-carboxylic acid (2H-tetrazol-5-yl)-amide] | 86
6 | COc1cc2c(Oc3ccc(OCC4CCCCC4)cc3)c(C(=O)Nc3nn[nH]n3)sc2cc1C [Example B.16, 3-(4-Cyclohexylmethoxy-phenoxy)-5-methoxy-6-methyl-benzo[b]thiophene-2-carboxylic acid (2H-tetrazol-5-yl)-amide] | 126
7 | COc1cc2c(Oc3ccc(OC4CCCC4)cc3)c(C(=O)Nc3nn[nH]n3)sc2cc1C [Example B.17, 3-(4-Cyclopentyloxy-phenoxy)-5-methoxy-6-methyl-benzo[b]thiophene-2-carboxylic acid (2H-tetrazol-5-yl)-amide] | 4
8 | COc1cc2c(Oc3cccc(C(C)(C)C)c3)c(C(=O)Nc3nn[nH]n3)sc2cc1C [Example B.18, 3-(3-tert-Butyl-phenoxy)-5-methoxy-6-methyl-benzo[b]thiophene-2-carboxylic acid (2H-tetrazol-5-yl)-amide] | 29
9 | COc1cc2c(Oc3ccc(OC4CCCCCC4)cc3)c(C(=O)Nc3nn[nH]n3)sc2cc1C [Example B.21, 3-(4-Cycloheptyloxy-phenoxy)-5-methoxy-6-methyl-benzo[b]thiophene-2-carboxylic acid (2H-tetrazol-5-yl)-amide] | 43
10 | COc1cc2c(Oc3ccc(OC4CCCCC4)cc3)c(C(=O)Nc3nn[nH]n3)sc2cc1C [Example B.22, 3-(4-Cyclohexyloxy-phenoxy)-5-methoxy-6-methyl-benzo[b]thiophene-2-carboxylic acid (2H-tetrazol-5-yl)-amide] | 18
11 | COc1cc2c(Oc3ccc(CCSC(C)(C)C)cc3)c(C(=O)Nc3nn[nH]n3)sc2cc1C [Example B.25, 3-[4-(2-tert-Butylsulfanyl-ethyl)-phenoxy)-5-methoxy-6-methyl-benzo[b]thiophene-2-carboxylic acid (2H-tetrazol-5-yl)-amide] | 25
12 | COc1cc2c(Oc3ccc(C4(C)CCCCC4)cc3)c(C(=O)Nc3nn[nH]n3)sc2cc1C [Example B.26, 5-Methoxy-6-methyl-3-[4-(1-methyl-cyclohexyl)-phenoxy]-benzo[b]thiophene-2-carboxylic acid (2H-tetrazol-5-yl)-amide] | 67
13 | COc1cc2c(Oc3ccc(C4(C)CCC(C)CC4)cc3)c(C(=O)Nc3nn[nH]n3)sc2cc1C (stereo not drawn) [Example B.27, 3-[4-(1,4-Dimethyl-cyclohexyl)-phenoxy]-5-methoxy-6-methyl-benzo[b]thiophene-2-carboxylic acid (2H-tetrazol-5-yl)-amide] | 125
14 | COc1cc2c(Oc3ccc(C4CCCCC4)cc3C)c(C(=O)Nc3nn[nH]n3)sc2cc1C [Example B.28, 3-(4-Cyclohexyl-2-methyl-phenoxy)-5-methoxy-6-methyl-benzo[b]thiophene-2-carboxylic acid (2H-tetrazol-5-yl)-amide] | 61
15 | COc1cc2c(Oc3ccc(C4CCCCC4)c(C)c3)c(C(=O)Nc3nn[nH]n3)sc2cc1C [Example B.29, 3-(4-Cyclohexyl-3-methyl-phenoxy)-5-methoxy-6-methyl-benzo[b]thiophene-2-carboxylic acid (2H-tetrazol-5-yl)-amide] | 275

Results, then the compound that gave them:

Row | IC50 [nM] | SMILES
16 | 17 | COc1cc2c(Oc3ccc(C(C)C)cc3)c(C(=O)Nc3nn[nH]n3)sc2cc1C [Example B.12, 3-(4-Isopropyl-phenoxy)-5-methoxy-6-methyl-benzo[b]thiophene-2-carboxylic acid (2H-tetrazol-5-yl)-amide]
17 | 31 | CCCCc1ccc(Oc2c(C(=O)Nc3nn[nH]n3)sc3cc(C)c(OC)cc23)cc1 [Example B.13, 3-(4-Butyl-phenoxy)-5-methoxy-6-methyl-benzo[b]thiophene-2-carboxylic acid (2H-tetrazol-5-yl)-amide]
18 | 365 | CCCCCCOc1ccc(Oc2c(C(=O)Nc3nn[nH]n3)sc3cc(C)c(OC)cc23)cc1 [Example B.14, 3-(4-Hexyloxy-phenoxy)-5-methoxy-6-methyl-benzo[b]thiophene-2-carboxylic acid (2H-tetrazol-5-yl)-amide]
19 | 76 | COc1cc2c(Oc3ccc(OCc4ccccc4)cc3)c(C(=O)Nc3nn[nH]n3)sc2cc1C [Example B.15, 3-(4-Benzyloxy-phenoxy)-5-methoxy-6-methyl-benzo[b]thiophene-2-carboxylic acid (2H-tetrazol-5-yl)-amide]
20 | 9 | COc1cc2c(Oc3ccc(C(C)(C)C)cc3)c(C(=O)Nc3nn[nH]n3)sc2cc1C [Example B.19, 3-(4-tert-Butyl-phenoxy)-5-methoxy-6-methyl-benzo[b]thiophene-2-carboxylic acid (2H-tetrazol-5-yl)-amide]
21 | 77 | COc1cc2c(Oc3ccc(-c4ccccc4)cc3)c(C(=O)Nc3nn[nH]n3)sc2cc1C [Example B.20, 3-(Biphenyl-4-yloxy)-5-methoxy-6-methyl-benzo[b]thiophene-2-carboxylic acid (2H-tetrazol-5-yl)-amide]
22 | 8 | COc1cc2c(Oc3ccc(Oc4ccccc4)cc3)c(C(=O)Nc3nn[nH]n3)sc2cc1C [Example B.24, 5-Methoxy-6-methyl-3-(4-phenoxy-phenoxy)-benzo[b]thiophene-2-carboxylic acid (2H-tetrazol-5-yl)-amide]
23 | 29 | COc1cc2c(Oc3ccc(C(C)c4ccccc4)cc3)c(C(=O)Nc3nn[nH]n3)sc2cc1C (stereo not drawn) [Example B.30, 5-Methoxy-6-methyl-3-[4-(1-phenyl-ethyl)-phenoxy]-benzo[b]thiophene-2-carboxylic acid (2H-tetrazol-5-yl)-amide]
24 | 87 | COc1cc2c(Oc3ccc(N4CCCCC4)cc3)c(C(=O)Nc3nn[nH]n3)sc2cc1C [Example B.31, 5-Methoxy-6-methyl-3-(4-piperidin-1-yl-phenoxy)-benzo[b]thiophene-2-carboxylic acid (2H-tetrazol-5-yl)-amide]
